# Tests used:
# MEG-01 cells [1] = experiment: DNA content assay with PI and RNAase A; format: cell-based, human; details: 10 μM, 4 days
# MEG-01 cells [2] = experiment: Anchorage independence assay in soft agar; format: cell-based, human; details: 25 μM
# Experimental: Anchorage independence of growth in soft agar assay is an assay for detecting malignant transformation of cells. Anchorage independence is given by defects in the cellular adhesion pathways. Anchorage independence is strongly connected with tumorogenicity and invasiveness. Malignant cells form colonies when grown on soft agar. Normal cells cannot grow on soft agar. Agarose (V3121 from Promega, with melting point at 87-89° C. and gelling point at 36-39° C.) was mixed with MEG-01 growth media RPMI1640 1× with 10% FBS and supplements. A bottom layer of 0.5% makes a firm base, then a top layer of 0.3% agarose with media and over the agarose a layer of growth media was added. Cells were grown in 12 wells dishes at 37° C., 5% CO2, 90% humidity in a VWR incubator. […] This modified image was then transformed into a default threshold image and then colonies were gated and measured.
# Referring to FIGS. 2-4, anchorage independence assay in soft agar ([…] and 0.3% top layer agar, with complete MEG-01 cells, growth media) is illustrated. […] The area of each colony was measured using the software NIH Image version 1.63. First the background was subtracted from a gray binary image, then default threshold was applied and then colonies were measured by appropriate gating. 85 colonies from 30 images were measured. […]
smiles,measurement,setting,value
"CN(C)c1nc2c(Br)c(Br)c(Br)c(Br)c2[nH]1 [DMAT, 2-dimethylamino-4,5,6,7-tetrabromo-1H-benzimidazole]",ploidy (DNA content),MEG-01 cells [1],higher than 2N
same,colony sizes versus Control untreated,"MEG-01 cells [2]; 85 colonies from 30 images, paired t-test p<0.0001",extremely significant
same,colony formation in soft agar,MEG-01 cells [2]; observed after one week,do not form colonies at all
